Assay [1] addresses full-length (wild-type) AtCRY1 (Arabidopsis thaliana, UniProt Q43125). To be noted: FAD-bound full-length protein; details only in supplement.
Another assay concerns the target AtCRY1 PHR (Arabidopsis thaliana, UniProt Q43125). The assay is described as follows: biochemical.

By Kd is commonly meant the concentration at which binding is half-saturated. Low values mean tighter binding, high ones weaker binding.

SMILES strings stand for the structures.

Chain of full-length (wild-type) AtCRY1 (Q43125 whole entry): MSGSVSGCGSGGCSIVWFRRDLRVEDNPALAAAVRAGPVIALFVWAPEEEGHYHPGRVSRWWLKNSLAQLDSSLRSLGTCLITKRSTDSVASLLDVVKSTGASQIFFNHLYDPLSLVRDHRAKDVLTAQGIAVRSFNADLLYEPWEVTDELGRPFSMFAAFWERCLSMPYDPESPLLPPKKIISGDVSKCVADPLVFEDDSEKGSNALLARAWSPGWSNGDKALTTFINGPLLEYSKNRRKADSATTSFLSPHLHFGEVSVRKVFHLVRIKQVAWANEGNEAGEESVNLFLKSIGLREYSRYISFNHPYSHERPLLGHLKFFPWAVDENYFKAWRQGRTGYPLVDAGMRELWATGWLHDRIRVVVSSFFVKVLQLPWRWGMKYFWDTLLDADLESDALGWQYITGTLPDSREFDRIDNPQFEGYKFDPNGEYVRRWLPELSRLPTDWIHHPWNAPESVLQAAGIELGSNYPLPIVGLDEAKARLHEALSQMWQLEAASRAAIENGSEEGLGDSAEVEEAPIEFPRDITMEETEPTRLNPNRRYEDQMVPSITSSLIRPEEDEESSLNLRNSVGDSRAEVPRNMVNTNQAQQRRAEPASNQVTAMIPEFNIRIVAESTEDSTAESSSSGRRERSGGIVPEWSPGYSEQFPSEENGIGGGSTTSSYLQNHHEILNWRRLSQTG
Chain of AtCRY1 PHR (Q43125 1-509): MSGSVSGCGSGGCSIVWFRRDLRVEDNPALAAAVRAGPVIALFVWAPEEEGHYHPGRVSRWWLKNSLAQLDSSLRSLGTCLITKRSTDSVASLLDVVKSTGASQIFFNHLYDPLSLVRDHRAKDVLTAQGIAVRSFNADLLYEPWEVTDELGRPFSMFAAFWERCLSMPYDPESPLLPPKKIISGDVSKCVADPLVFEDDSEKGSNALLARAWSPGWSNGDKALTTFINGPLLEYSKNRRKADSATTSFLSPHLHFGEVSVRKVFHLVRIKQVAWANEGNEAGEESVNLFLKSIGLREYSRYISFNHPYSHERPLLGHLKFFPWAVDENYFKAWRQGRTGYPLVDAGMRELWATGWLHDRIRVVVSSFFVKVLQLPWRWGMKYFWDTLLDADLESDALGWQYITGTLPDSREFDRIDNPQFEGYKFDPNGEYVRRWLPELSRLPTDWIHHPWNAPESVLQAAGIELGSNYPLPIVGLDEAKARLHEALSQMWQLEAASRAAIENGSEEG

Take `Nc1ncnc2c1ncn2[C@@H]1O[C@H](COP(=O)(O)OP(=O)(O)OP(=O)(O)O)[C@@H](O)[C@H]1O` [ATP]: in assay [1], the “UV-Vis and transient absorption with ATP (control experiments)” value is recorded as “we have not found any significant differences in their photoreactions”. In addition, binding on AtCRY1 PHR was put at a Kd of 1400 ± 600 nM.

(Values after article PMC4046262 (Scientific Reports, 2014).)
